From patent US6849578B1, “Selective herbicides based on 2,6-disubstituted pyridine derivatives” (Bayer Aktiengesellschaft, priority 1999, dated 2005)

Assays:
Format in all cases: in vivo
Digitaria = test: Post-emergence greenhouse test, % damage; settings: Table A-2, after about 3 weeks
Text: (§1) The expected activity for a given combination of two herbicides can be calculated as follows (cf. COLBY, S. R.: “Calculating synergistic and antagonistic responses of herbicide combinations”, Weeds 15, pages 20-22, 1967): • If X=% damage by herbicide A (active compound of the formula (I) at an application rate of p kg/ha • and Y=% damage by herbicide B (active compound of the formula II) at an application rate of q kg/ha • and E=the expected damage of the herbicides A and B at application rates of p and q kg/ha, • then E=X+Y−(X*Y/100).
(§2) Customary formulations of the active compounds in question were used. Propoxycarbazone-sodium was used as 70 WG, flufenacet as 60 WG and picolinafen as 75 WG formulation. From the active compounds, an aqueous spray liquor containing 0.1% of the additive Renex-36 was prepared.
(§3) Test plants are grown in a greenhouse under controlled conditions (temperature and light conditions). When the plants have reached a height of 5 to 15 cm, they are sprayed with the test solution. The concentration of the spray liquor is chosen such that the particular amounts of active compound desired are applied in 500 l of water/ha.
(§4) After the spray treatment, the plant containers are stored in a greenhouse at constant light and temperature conditions.
(§5) After about 3 weeks, the degree of damage to the crop plants is rated in % damage in comparison to the development of the untreated control.
(§6) The figures denote: • 0%=no damage (like untreated control) • 100%=total destruction/damage

Cassia = test: Post-emergence greenhouse test, % damage; settings: Table A-4, after about 3 weeks
Text: as §1, §2, §3, §4, §5, §6

Echinochloa = test: Post-emergence greenhouse test, % damage; settings: Table A-3, after about 3 weeks
Text: as §1, §2, §3, §4, §5, §6

Avenua = test: Post-emergence greenhouse test, % damage; settings: after about 3 weeks
Text: as §1, §2, §3, §4, §5, §6

Ipomoea = test: Post-emergence greenhouse test, % damage; settings: Table A-5, after about 3 weeks
Text: as §1, §2, §3, §4, §5, §6

Viola = test: Post-emergence greenhouse test, % damage; settings: Table A-6, after about 3 weeks
Text: as §1, §2, §3, §4, §5, §6

Galium = test: Outdoor trials in cereal, post-emergence spring, herbicidal activity; settings: about 8-10 weeks after application
Text: as §1
(§7) To examine a possible synergism, the compounds picolinafen and propoxycarbazone-sodium were tested under outdoor conditions in cereal against economically important weed grasses. The small-plot experiments were conducted on areas used for agricultural cultivation.
(§8) The active compounds were applied in spring by the post-emergence method and over the entire area, using spray application with a medium droplet size. To prepare an advantageous preparation of active compound, the active compounds were formulated as 70 WG (70% w/w water-dispersible powder) or 75 WG (75% w/w water-dispersible powder) and suspended in water. The spray liquor was then applied in a water application rate customarily used in practice.
(§9) About 8-10 weeks after the application of the spray liquor, the herbicidal activity was scored visually. The figures denote: • 0%=no herbicidal effect, • 100%=total destruction of the crop or the weeds.

Legousia = test: as above; settings: about 8-10 weeks after application
Text: as §1, §7, §8, §9

Lactuca = test: as above; settings: about 8-10 weeks after application
Text: as §1, §7, §8, §9

Matricaria ch. = test: as above; settings: about 8-10 weeks after application
Text: as §1, §7, §8, §9

Stellaria = test: as above; settings: about 8-10 weeks after application
Text: as §1, §7, §8, §9

Matricaria in. = test: as above; settings: about 8-10 weeks after application
Text: as §1, §7, §8, §9

CC(C)N(C(=O)COc1nnc(C(F)(F)F)s1)c1ccc(F)cc1 [flufenacet, N-isopropyl-N-(4-fluorophenyl)-(5-trifluoromethyl-1,3,4-thiadiazol-2-yl-oxy)-acetamide]
Digitaria observed (Digitaria; 60 g of ai/ha): 0%
Digitaria observed (Digitaria; 125 g of ai/ha): 10%
Cassia observed (Cassia; 125 g of ai/ha): 0%
Echinochloa observed (Echinochloa; 60 g of ai/ha): 60%
Avenua observed (Avenua; 30 g of ai/ha, Table A-1): 10%
Avenua observed (Avenua; 60 g of ai/ha, Table A-1): 10%
Ipomoea observed (Ipomoea; 60 g of ai/ha): 30%
Ipomoea observed (Ipomoea; 125 g of ai/ha): 30%
Viola observed (Viola; 60 g of ai/ha): 0%

O=C(Nc1ccc(F)cc1)c1cccc(Oc2cccc(C(F)(F)F)c2)n1 [picolinafen, N-(4-fluorophenyl)-6-[3-(trifluoromethyl)phenoxy]-2-pyridinecarboxamide]
Digitaria observed (Digitaria; 30 g of ai/ha): 50%
Cassia observed (Cassia; 30 g of ai/ha): 40%
Echinochloa observed (Echinochloa; 8 g of ai/ha): 10%
Avenua observed (Avenua; 8 g of ai/ha, Table A-1): 0%
Avenua observed (Avenua; 15 g of ai/ha, Table A-7): 10%
Avenua observed (Avenua; 15 g of ai/ha, Table A-8): 0%
Avenua observed (Avenua; 15 g of ai/ha, Table A-9): 70%
Avenua observed (Avenua; 30 g of ai/ha, Table A-1): 20%
Avenua observed (Avenua; 30 g of ai/ha, Table A-7): 20%
Avenua observed (Avenua; 30 g of ai/ha, Table A-8): 20%
Avenua observed (Avenua; 30 g of ai/ha, Table A-9): 70%
Ipomoea observed (Ipomoea; 8 g of ai/ha): 70%
Ipomoea observed (Ipomoea; 15 g of ai/ha): 70%
Ipomoea observed (Ipomoea; 30 g of ai/ha): 70%
Viola observed (Viola; 8 g of ai/ha): 90%
Galium observed (Galium; 75 g of ai/ha): 30%
Legousia observed (Legousia; 75 g of ai/ha): 0%
Lactuca observed (Lactuca; 75 g of ai/ha): 0%
Matricaria ch. observed 1st location (Matricaria ch.; 75 g of ai/ha): 0%
Matricaria ch. observed 2nd location (Matricaria ch.; 75 g of ai/ha): 0%
Stellaria observed (Stellaria; 75 g of ai/ha): 20%
Matricaria in. observed (Matricaria in.; 75 g of ai/ha): 45%

CCCOc1nn(C(=O)NS(=O)(=O)c2ccccc2C(=O)OC)c(=O)n1C.[Na] [propoxycarbazone-sodium, methyl 2-[[[(4,5-dihydro-4-methyl-5-oxo-3-propoxy-1H-1,2,4-triazol-1-yl)carbonyl]-amino]-sulphonyl]-benzoate sodium salt]
Avenua observed (Avenua; 15 g of ai/ha, Table A-7): 50%
Avenua observed (Avenua; 15 g of ai/ha, Table A-8): 0%
Avenua observed (Avenua; 15 g of ai/ha, Table A-9): 0%
Avenua observed (Avenua; 30 g of ai/ha, Table A-7): 50%
Avenua observed (Avenua; 30 g of ai/ha, Table A-8): 20%
Avenua observed (Avenua; 30 g of ai/ha, Table A-9): 0%
Avenua observed (Avenua; 60 g of ai/ha, Table A-7): 60%
Avenua observed (Avenua; 60 g of ai/ha, Table A-9): 0%
Galium observed (Galium; 42 g of ai/ha): 0%
Legousia observed (Legousia; 42 g of ai/ha): 0%
Lactuca observed (Lactuca; 42 g of ai/ha): 10%
Matricaria ch. observed 1st location (Matricaria ch.; 42 g of ai/ha): 60%
Matricaria ch. observed 2nd location (Matricaria ch.; 42 g of ai/ha): 10%
Stellaria observed (Stellaria; 42 g of ai/ha): 30%
Matricaria in. observed (Matricaria in.; 42 g of ai/ha): 75%
